The test system of assay [1] is hamster flank organ sebaceous gland. Kind of assay: Hamster flank organ sebaceous gland differentiation (model for acne). The class given is in vivo, male golden syrian hamsters. To be noted: compared with 13-cis retinoic acid (30 mg/kg), FIG. 3. How it is done: Differentiation of hamster flank organ sebaceous gland is a model system for development of acne. To determine the effectiveness of selective CYP26B inhibitors for treating acne, such inhibitors were tested in this model system. To confirm that this model system can predict the effectiveness of a compound in reducing acne, 13-cis retinoic acid (acutane) was used as a positive control.
For the hamster model system, male golden syrian hamsters were fed LabDiet#5002 rodent diet and housed individually on a 14/10 hr light/dark cycle. For treatment, the animals were randomized according to body weight and they were also weighed at each treatment so that the drug doses could be adjusted accordingly. The animals were treated daily by oral gavage, 6 days/week for 4 weeks. At the end of treatments, the animals were sacrificed by carbon dioxide inhalation. The flank organs were then excised and spread on a small piece of index card which was placed in a histology cassette for fixation in 10% buffered formaldehyde. The specimen was divided into 5 equally spaced portions to make paraffin blocks and one 5-micrometer H&E sections was prepared from each block. The two sections that contained the most sebaceous glands were used to determine the average acini area of the flank organ. A video camera attached to a standard microscope with the 4× objective was used to capture the images of the sebaceous glands. Computer programs Videoshop and NIH Image 1.63 were used to quantify the acini areas. All the recognizable sebaceous glands in the two sections were analyzed and the means were derived for comparison among various treatments. In all studies, blood samples were also collected for determining the levels of serum triglyceride using a triglyceride GPO Trinder kit from Sigma Chemicals (St. Louis, Mo.).

The target of a further assay is T1, RAR γ (Homo sapiens, UniProt P13631).
T1 sequence (P13631 1-454): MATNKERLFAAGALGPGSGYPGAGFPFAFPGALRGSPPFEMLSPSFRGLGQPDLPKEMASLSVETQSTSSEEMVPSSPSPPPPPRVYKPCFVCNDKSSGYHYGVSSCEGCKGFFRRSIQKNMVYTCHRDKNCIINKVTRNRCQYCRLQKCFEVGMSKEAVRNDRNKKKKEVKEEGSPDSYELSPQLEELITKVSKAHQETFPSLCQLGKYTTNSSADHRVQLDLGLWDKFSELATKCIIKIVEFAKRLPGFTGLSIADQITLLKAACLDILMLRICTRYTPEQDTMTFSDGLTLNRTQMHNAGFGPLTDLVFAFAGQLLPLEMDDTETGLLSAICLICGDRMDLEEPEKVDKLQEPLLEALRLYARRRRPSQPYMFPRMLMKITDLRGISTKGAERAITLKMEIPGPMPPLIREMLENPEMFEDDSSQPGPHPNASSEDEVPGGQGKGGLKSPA
Put plainly: RAR γ Kd. The format is binding. Particulars: Table 3.

Another assay has as its target T2, CYP26A (P450RAI-1) (Homo sapiens, UniProt O43174).
T2 construct: expressed in transfected cells; host or cells: HeLa
T2 sequence (O43174 1-497): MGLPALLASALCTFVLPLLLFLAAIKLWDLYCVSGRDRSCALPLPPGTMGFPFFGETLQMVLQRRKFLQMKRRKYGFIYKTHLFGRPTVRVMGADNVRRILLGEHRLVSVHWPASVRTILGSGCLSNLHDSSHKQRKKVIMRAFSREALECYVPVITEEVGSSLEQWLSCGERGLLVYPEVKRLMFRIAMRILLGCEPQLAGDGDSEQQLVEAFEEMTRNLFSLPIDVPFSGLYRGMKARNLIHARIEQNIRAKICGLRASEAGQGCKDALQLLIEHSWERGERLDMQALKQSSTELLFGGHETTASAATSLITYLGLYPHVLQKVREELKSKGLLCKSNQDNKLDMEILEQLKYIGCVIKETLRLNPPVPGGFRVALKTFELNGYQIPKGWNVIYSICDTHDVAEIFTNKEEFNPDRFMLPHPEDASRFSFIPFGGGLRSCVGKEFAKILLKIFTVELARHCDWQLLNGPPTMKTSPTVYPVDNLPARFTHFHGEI
Kind of assay: Cell-based inhibition of RA metabolism in CYP26A stably transfected HeLa cells. To be noted: for pIC50: Table 3, stably transfected HeLa cells, [3H]-RA, 3 hours at 37° C., read-out: CYP26A Intact cells IC50. A digest of the protocol: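 Stably transfected HeLa cells (5×10^5/well) in MEM with 10% FBS and 0.05 μCi [3H]-RA, compounds at 10, 1 or 0.1 μM final, 3 h at 37° C. Retinoids extracted by modified Bligh-Dyer (methylene chloride); aqueous radioactivity counted; ID50 for 50% inhibition of RA metabolism derived from log-transformed data.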

pIC50, pKd: −log10 of the molar value. Where only a bound is given, the exact number is not on record here.

Usually pKd stands for −log10 of the Kd, conventionally taken in molar units. A lower pKd goes with a large Kd. A word on the pIC50: it is the IC50 on a negative log10 scale, so that one unit is a factor of ten. Take `CN(Cc1cccc(C#Cc2ccc(/C=C/C(=O)O)cc2)c1)C1CC1` [AGN 199713]: the “hamster flank sebaceous gland differentiation” value in assay [1] (12.5 mg/kg) was “reduced hamster flank sebaceous gland differentiation at least as effectively as 13-cis retinoic acid”. Moreover, at RAR γ, the pKd is < 5.00. In addition, the pIC50 at CYP26A (P450RAI-1) was < 5.00.
In the case of `CN(C1CC1)C1CCC(C)(C)c2cc(C#Cc3ccc(C(C)(C)C(=O)O)cc3)ccc21` (stereo not shown) [AGN 198790], the “hamster flank sebaceous gland differentiation” value in assay [1] (50 mg/kg) is given as “reduced hamster flank sebaceous gland differentiation at least as effectively as 13-cis retinoic acid”. Further, the pKd at RAR γ was < 5.00. Moreover, the pIC50 at CYP26A (P450RAI-1) is 6.22. Besides, on CYP26A (P450RAI-1) (ratio of ID50 values), the “selectivity for CYP26A relative to CYP26B” value was “at least 10 fold”.

The record behind these values is patent US7468391B2, “Methods for treating retinoid responsive disorders using selective inhibitors of CYP26A and CYP26B” (Allergan, Inc., priority 2003, dated 2008).
